Measured values: patent US9389237B2, “Methods for inhibiting the development of Huntington's disease” (priority 2003, dated 2016)
“And” between values parts separate entries of the source, which are not always exact repeats. Equal values may be shown once. “Also recorded” adds a separate entry of the source.

Experiments:
[1] = tested on: mutant form of huntingtin; test: In vitro estradiol binding study, overall conclusion; settings: conclusion from Table 2
Protocol: These pure proteins were then used in the following binding protocol. Oestradiol-6-(0-carboxymethyl)oximino-(2-[125I] iodohistamine was used as the estradiol source. Buffer B preferably comprises: 250 mM tris, 150 mM NaCl, and a Dextran Charcoal solution comprising 0.05% Dextran coated charcoal in buffer B (sigma Cat#6197). About 0.5 ml of buffer B was preferably used per reaction. A total of 5 ml of Buffer B was aliquoted into a glass borosilicate tube (Fisher Cat#14-961-26) and 10 μL of Oestradiol (1125) was added containing approximately 2,000,000 cpm. About 0.5 ml of this solution was then distributed into eight labeled glass tubes (cat #14-961-260). The entire tube #1's 500 μL was counted. Tube #2 through #8 were treated in the following manner:
Tubes #2-#8 were incubated for 1 hour at room temperature, placed on ice for ten minutes, and 200 μL of the Dextran charcoal solution in buffer B was added. These tubes were then placed on ice ten minutes and then centrifuged 15 minutes at 2200 rpm in a Sorvall RC-3 refrigerated centrifuge with swinging bucket rotor (Sorvall HL-8) at 4 degrees. The entire 700 μL supernatant was removed and counted using Genesys multi-well gamma counter (Laboratories Technology, Inc.). The results are summarized below: […]

[2] = Serum hormone level (ES/TT) in treated HD mice; settings: subcutaneous injection as emulsion with Freund's incomplete adjuvant
Protocol: Hormone tests of serum were performed to verify the blood levels of estradiol or testosterone. The mice (controls=no treatment) were tested against liter mates receiving either (E1 and E3 100 ug/ml weekly) or (E2 and E4 200 ug/ml injection weekly).
Blood specimens for estradiol assay using Elisa methodology was obtained during the study.
Stock solution of estradiol and testosterone were diluted with water and mixed with Freund's incomplete adjuvant. This was mixed continuously for 1 minute and either 100 ul (E1 and E3) or 200 ul (E2 and E4) were injected subcutaneously. […] Animals in the E1 and E3 groups were targeted to receive 100-300 pg/ml estrogen and groups E2 and E4 were targeted to receive 400-800 pg/ml of estrogen. Animals in T1 and T2 grouping were targeted to receive 100 pg/ml testosterone.

[3] = tested on: HD transgenic mice (HDexon 1 + 159-161 CAG repeat units); test: Body weight of hormone treated HD transgenic mice; type: in vivo; settings: for Last wt Week 12 / Peak wt Weeks 8/9 / % change in weight / Change in Grams / % change: single animals; for Average % change: group average weight loss; for % change in weight / Change in Grams / % change: peak to week 12
Source text: 30 HD mice were obtained from the Jackson Laboratory, Bar Harbor, Me. The group consists of a 15 hemizygous female strain #2810 and 15 hemizygous males strain #2810 (containing the transgene HDexon 1+159-161 CAG repeat units). These mice were grouped as follows: • All mice received ear clips as identification, noting hair color. • 1-15 were males and 16-29 were females mouse #30 arrived dead. • Male mice: 1-4 were control animals receiving no treatment, 5,6,7,11 were grouped as E1 8, 9, 10 and 12 were grouped as E2. […] 28 and 29 were grouped as T2, receiving 100 ug/ml testosterone.
Body Weight: All animals were weighed on a scale weekly throughout the study. All weights were recorded.

[4] = tested on: HD transgenic mice (HDexon 1 + 159-161 CAG repeat units); test: Beam walking (raised beam) of treated HD transgenic mice; type: in vivo; settings: for ability to transverse the ½ in beam in the allotted time / improvement over the course of the study (continued ability to cross the ½ in^2 beam after controls were unable): HD mice, 150 seconds allotted; for ability to transverse the ½ in beam in the allotted time: versus untreated control liter mates; for improvement over the course of the study (continued ability to cross the ½ in^2 beam after controls were unable): two weeks after control animals failed; for time after untreated liter mates were unable to perform the trained task, with retained cognitive decision making and motor function: HD transgenic mice, beam task
Source text: (§1) 30 HD mice were obtained from the Jackson Laboratory, Bar Harbor, Me. The group consists of a 15 hemizygous female strain #2810 and 15 hemizygous males strain #2810 (containing the transgene HDexon 1+159-161 CAG repeat units). These mice were grouped as follows: • All mice received ear clips as identification, noting hair color. • 1-15 were males and 16-29 were females mouse #30 arrived dead. • Male mice: 1-4 were control animals receiving no treatment, 5,6,7,11 were grouped as E1 8, 9, 10 and 12 were grouped as E2. 13, 14 and 15 were grouped as T1, receiving 100 ug/ml testosterone weekly. • Female mice: 16-19 were control animals receiving no treatment. 20, 21, 22, 26 were grouped as E3, 23, 24, 25, 27 were grouped as E4. 28 and 29 were grouped as T2, receiving 100 ug/ml testosterone.
Utilizing the raised beam, mice were assessed for their ability to transverse a graded series of narrow beams to reach a safety platform. The beams consisted of long strips of wood with a 12 mm or 5 mm square cross section. The beams were placed horizontally, 50 cm above each bench surface, with one end mounted on a narrow support and the other end attached to an enclosed box to which the animal could escape. Two inches of dense foam was placed under the test area to protect the animals from fall injury. Training took place in a 3 or 4 day period, where the mice were trained two to four times in a four day period using the 12 mm square beam. Once they were trained to walk the beam (i.e., traversing the 12 mm square beam in less than 20 seconds), they received two consecutive trails on each of the square beam and each of the round beams, in each case progressing from the widest to the narrowest beam. Mice were afforded 150 seconds to traverse each beam. The number of times the mice slipped off of the beam was recorded for each trial. The mean score was used for each trial.

[5] = tested on: HD transgenic mice (HDexon 1 + 159-161 CAG repeat units); test: Brain weight at week 12 of treated HD transgenic mice; type: in vivo; settings: for Brain weight at week 12: single animals
Source text: as §1, with “were males and 16-29 were females mouse #30 arrived dead. • Male mice: 1-4 were control animals” left out, “[…],” for “5,6,7,11 were grouped as E1 8,”, “13, 14 and 15 were grouped as T1, receiving 100 ug/ml testosterone weekly. • Female mice: 16-19 were control animals receiving no treatment.” left out
After euthanized, all brains of all mice were surgically removed and placed in a solution of formaldehyde and weighed on a scale. The weights were recorded.

[6] = female HD mice, group E1, 100 ul ES dose weekly, target blood level 100-300 pg/ml
[7] = female HD mice, group E1, 100 ul ES dose weekly
[8] = female HD mice, group E2, 200 ul ES dose weekly, target blood level 400-800 pg/ml
[9] = female HD mice, group E2, 200 ul ES dose weekly
[10] = male HD mice, group E3, 100 ul ES dose weekly, target blood level 100-300 pg/ml
[11] = male HD mice, group E3, 100 ul ES dose weekly
[12] = male HD mice, group E4, 200 ul ES dose weekly, target blood level 400-800 pg/ml
[13] = male HD mice, group E4, 200 ul ES dose weekly
[14] = female HD mice, group T1, 100 ul T dose weekly, target blood level 50-100 pg/ml
[15] = female HD mice, group T1, 100 ul T dose weekly
[16] = male HD mice, group T2, 100 ul T dose weekly, target blood level 50-100 pg/ml
[17] = male HD mice, group T2, 100 ul T dose weekly

C[C@]12CC[C@@H]3c4ccc(O)cc4CC[C@H]3[C@@H]1CC[C@@H]2O [estradiol, 1,3,5(10)-estratriene-3,17beta-diol]
affinity for mutant huntingtin [1]: an affinity for estradiol has been demonstrated

CC12CCC3c4ccc(O)cc4CCC3C1CC[C@@H]2OC(=O)CCC1CCCC1 (stereo partly drawn) [estradiol cypionate, estradiol 17-cyclopentanepropionate]
release after injection [2]: continuous over six days
Last wt Week 12 [3, 6]: 21.7 g and 16.9 g and 18.9 g and 18.2 g
Peak wt Weeks 8/9 [3, 6]: 24.0 g and 19.9 g and 21.2 g and 25.0 g
Average % change ([3]; female HD mice, group E1, 100 ul ES dose weekly, controls 21.7%): 15.5%
% change in weight [3, 7]: −9.0% and −15.0% and −10.8% and −27.2%
Change in Grams [3, 7]: −2.3 g (2×) and −3.0 g and −6.8 g
Last wt Week 12 [3, 8]: 20.5 g and 17.6 g and 13.5 g and 20.7 g
Peak wt Weeks 8/9 [3, 8]: 21.5 g and 21.8 g and 19.8 g and 22.5 g
Average % change ([3]; female HD mice, group E2, 200 ul ES dose weekly, controls 21.7%): 15.7%
% change in weight [3, 9]: −4.6% and −19.2% and −31.0% and −8.0%
Change in Grams [3, 9]: -1.0 g and -4.2 g and -6.3 g and -1.8 g
Last wt Week 12 [3, 10]: 19.6 g and 22.6 g and 21.7 g and 23.5 g
Peak wt Weeks 8/9 [3, 10]: 26.2 g and 26.7 g and 24.8 g and 26.4 g
Average % change ([3]; male HD mice, group E3, 100 ul ES dose weekly, controls 27.2%): 15.9%
% change [3, 11]: −25.0% and −15.3% and −12.5% and −10.9%
Change in Grams [3, 11]: -6.6 g and -4.1 g and -3.1 g and -2.9 g
Last wt Week 12 [3, 12]: 22.9 g and 19.6 g and 20.2 g and 19.4 g
Peak wt Weeks 8/9 [3, 12]: 26.2 g and 24.6 g and 23.7 g and 22.1 g
Average % change ([3]; male HD mice, group E4, 200 ul ES dose weekly, controls 27.2%): 14.9%
% change [3, 13]: −12.5% and −20.3% and −14.7% and −12.2%
Change in Grams [3, 13]: -3.3 g and -5.0 g and -3.5 g and -2.7 g
ability to transverse the ½ in beam in the allotted time [4]: significant improvement; also recorded: able to complete the traversing of the beam in the allotted time; also recorded: significant increase in their ability to cross the beam within the time allotment
improvement over the course of the study (continued ability to cross the ½ in^2 beam after controls were unable) [4]: 16.6%
time after untreated liter mates were unable to perform the trained task, with retained cognitive decision making and motor function [4]: 14 days
Brain weight at week 12 [5, 7]: 0.33 g and 0.36 g and 0.34 g and 0.30 g
Brain weight at week 12 [5, 9]: 0.33 g and 0.37 g (2×)
Brain weight at week 12 [5, 11]: 0.37 g (2×) and 0.40 g (2×)
Brain weight at week 12 [5, 13]: 0.39 g and 0.34 g and 0.35 g
increase in brain weight ([5]; on average, lower level (100-300 Pg/ml) of estrogen treatment versus untreated): ≤ 10%

CC12CCC(=O)C=C1CCC1[C@@H]2CCC2(C)[C@@H](OC(=O)CCC3CCCC3)CC[C@@H]12 (stereo partly drawn) [testosterone cypionate, androst-4-en-3-one,17-(3-cyclopentyl-1-oxopropoxy)-, (17β)-]
Last wt Week 12 [3, 14]: 17.4 g and 14.5 g
Peak wt Weeks 8/9 [3, 14]: 27.6 g and 21.6 g
Average % change ([3]; female HD mice, group T1, 100 ul T dose weekly, controls 21.7%): 34.8%
% change in weight [3, 15]: −36.9% and −32.8%
Change in Grams [3, 15]: -10.2 g and -7.1 g
Last wt Week 12 [3, 16]: 17.1 g and 25.1 g and 19.0 g
Peak wt Weeks 8/9 [3, 16]: 23.4 g and 28.0 g and 27.0 g
Average % change ([3]; male HD mice, group T2, 100 ul T dose weekly, controls 27.2%): 22.2%
% change [3, 17]: −26.9% and −10.3% and −29.6%
Change in Grams [3, 17]: -6.3 g and -2.9 g and -8.0 g
ability to transverse the ½ in beam in the allotted time [4]: significant improvement
improvement over the course of the study (continued ability to cross the ½ in^2 beam after controls were unable) [4]: 16.6%
time after untreated liter mates were unable to perform the trained task, with retained cognitive decision making and motor function [4]: 14 days
Brain weight at week 12 [5, 15]: 0.31 g
Brain weight at week 12 [5, 17]: 0.31 g and 0.37 g and 0.33 g
